Data on one substance can be found in US20140099257A1, “Androgen Suppression, Prostate-Specific Membrane Antigen and the Concept of Conditionally Enhanced Vulnerability” (CORNELL UNIVERSITY, priority 2012, published 2014).

The data set has as its system AR. The experiment in a line: Silencing of AR with siRNA in prostate cancer cell lines; AR, PSMA expression (FACS, western blot) and PSA secretion. In kind it is cell-based, human. The settings on record: FACS analysis of LNCaP, MDA-Pca-2b and LAPC-4 cells (FIG. 6). As for the experimental part:
For western blots, cells were lysed with Cell Lysis Buffer (Cell Signaling Technology, Danvers, Mass.) containing 1 mM phenylmethylsulphonyl fluoride (EMD Chemicals, Gibbstown, N.J.). Equal amounts of protein were applied in each well on a 10% Tris-HCl gel (Bio-Rad Laboratories, Hercules, Calif.). The proteins were transferred onto Immobilon-P Membranes (Millipore, Billerica, Mass.), after which the filters were probed with the following reagents: murine anti-PSMA mAb J591, murine mAb anti-AR (AR441), rabbit anti-human AR, murine mAb anti-human beta-actin, and/or goat polyclonal anti-GAPDH. For quantitative western blots, the Li-cor Odyssey Infrared Imaging System (Lincoln, Nebr.) was used. With this system, two different proteins of the same molecular weight (e.g., PSMA and AR) can be detected simultaneously and quantified on the same blot using two different antibodies from two different species (mouse and rabbit) followed by detection with two IRDye labeled secondary antibodies. […] After washing, the membranes were scanned and the bands were quantified with the Odyssey Infrared Imaging System.
Fluorescence-activated cell sorting (FACS) analysis was also employed in these examples0. […]
In general terms: Immunoblotting shows a protein as a band on a membrane.

On to “non-targeted-siRNA: non-targeting control siRNA 5′-CCUACGCCACCAAUUUCGU-3′ (Dharmacon) (chemistry not given here)”, for which the AR expression result was “did not affect expression” and the PSMA expression entry was “did not affect expression”.
